Among the data in US20240246964A1 (Arbutus Biopharma Corporation, priority 2021, published 2024) are EC50 values, retold here.

Each structure is given as a SMILES string. pEC50: −log10 of the molar value. Where only a bound is given, the exact number is not on record here.

Chain of human PD-L1 (Q9NZQ7 19-290): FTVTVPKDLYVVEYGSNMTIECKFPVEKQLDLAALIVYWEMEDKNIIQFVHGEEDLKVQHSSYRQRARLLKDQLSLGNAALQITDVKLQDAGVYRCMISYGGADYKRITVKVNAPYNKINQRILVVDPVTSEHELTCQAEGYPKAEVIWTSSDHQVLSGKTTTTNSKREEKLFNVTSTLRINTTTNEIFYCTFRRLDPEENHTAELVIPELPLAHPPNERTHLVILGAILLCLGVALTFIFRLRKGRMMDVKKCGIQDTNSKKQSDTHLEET

This experiment has as its target human PD-L1 (Homo sapiens (Human), UniProt Q9NZQ7). As to the kind of experiment: T cell activation luciferase reporter cell culture system (T Cell Activation Assay). Format: cell-based. The following applies: luciferase reporter assay; PD-L1 aAPC/CHO-K1 cells with PD-1 effector Jurkat T cells. In general terms: In a reporter assay the amount or activity of a reporter protein is the signal.
Regarding `COc1cc(-c2nccc(-c3cccc(-c4ccc(CNC[C@@H]5CCC(=O)N5)c(OC)n4)c3Cl)c2Cl)cc2c1CN(CC(=O)O)CC2` [Cmpd 151, (S)-2-(6-(3-chloro-4-(2-chloro-3-(6-methoxy-5-((((5-oxopyrrolidin-2-yl)methyl)amino)methyl)pyridin-2-yl)phenyl)pyridin-2-yl)-8-methoxy-3,4-dihydroisoquinolin-2(1H)-yl)acetic acid], the pEC50 is 7.11.

As to `COc1cc(-c2nccc(-c3cccc(-c4ccc(CNCCC(=O)O)c(OC)n4)c3Cl)c2Cl)ccc1CNC1CCN(C(C)=O)CC1` [Cmpd 389, 3-(((6-(3-(2-(4-(((1-acetylpiperidin-4-yl)amino)methyl)-3-methoxyphenyl)-3-chloropyridin-4-yl)-2-chlorophenyl)-2-methoxypyridin-3-yl)methyl)amino)propanoic acid], the pEC50 is 7.45.

`COc1cc(-c2nccc(-c3cccc(-c4ccc(CN5CC6(CNC(=O)C6)C5)c(OC)n4)c3Cl)c2F)ccc1CN1CC2(CNC(=O)C2)C1` [Example 324, 2-(4-(4-(2-chloro-3-(6-methoxy-5-((7-oxo-2,6-diazaspiro[3.4]octan-2-yl)methyl)pyridin-2-yl)phenyl)-3-fluoropyridin-2-yl)-2-methoxybenzyl)-2,6-diazaspiro[3.4]octan-7-one] had a pEC50 of 7.50.

Turning to `COc1cc(-c2nccc(-c3cccc(-c4ccc(CN5CCC(NC(C)=O)CC5)c(OC)n4)c3Cl)c2C)ccc1CN1CCC(NC(C)=O)CC1` [Example 466, N-(1-((6-(3-(2-(4-((4-Acetamidopiperidin-1-yl)methyl)-3-methoxyphenyl)-3-methylpyridin-4-yl)-2-chlorophenyl)-2-methoxypyridin-3-yl)methyl)piperidin-4-yl)acetamide], the pEC50 is at most 5.00.

Regarding `COc1cc(-c2nccc(-c3cccc(-c4ccc(CN5CCNC(=O)C5)c(OC)n4)c3Cl)c2Cl)ccc1CN1CCNC(=O)C1` [Example 457, 4-((6-(2-Chloro-3-(3-chloro-2-(3-methoxy-4-((3-oxopiperazin-1-yl)methyl)phenyl)pyridin-4-yl)phenyl)-2-methoxypyridin-3-yl)methyl)piperazin-2-one], the negative-log EC50 (pEC50) is at most 5.00.

As to `COc1cc(-c2ncnc(-c3cccc(-c4ccc(CN5CC6(CNC(=O)C6)C5)c(OC)n4)c3Cl)c2C)ccc1CN1CC2(CNC(=O)C2)C1` [Example 535, 2-((6-(2-Chloro-3-(6-(3-methoxy-4-((7-oxo-2,6-diazaspiro[3.4]octan-2-yl)methyl)phenyl)-5-methylpyrimidin-4-yl)phenyl)-2-methoxypyridin-3-yl)methyl)-2,6-diazaspiro[3.4]octan-7-one], the pEC50 was 5.97.

Turning to `COc1cc(-c2nccc(-c3cccc(-c4ccc(CNC5CCN(C(=O)CO)CC5)c(OC)n4)c3Cl)c2Cl)ccc1CNC1CCN(C(C)=O)CC1` [Example 533, 1-(4-(((6-(3-(2-(4-(((1-Acetylpiperidin-4-yl)amino)methyl)-3-methoxyphenyl)-3-chloropyridin-4-yl)-2-chlorophenyl)-2-methoxypyridin-3-yl)methyl)amino)piperidin-1-yl)-2-hydroxyethan-1-one], the pEC50 was 7.87.

`COc1nc(-c2cncc(-c3cccc(NC(=O)c4cn(C)c(=O)n(C)c4=O)c3Cl)c2Cl)ccc1CNC1CCN(C(C)=O)CC1` [Compound 723, N-(3-(5-(((1-Acetylpiperidin-4-yl)amino)methyl)-4′-chloro-6-methoxy-[2,3′-bipyridin]-5′-yl)-2-chlorophenyl)-1,3-dimethyl-2,4-dioxo-1,2,3,4-tetrahydropyrimidine-5-carboxamide] gave a pEC50 of 5.73.

`COc1nc(-c2cccc(-c3ccnc(-c4cc(Cl)c5c(c4)CCN(CCCF)C5)c3Cl)c2Cl)ccc1CNC[C@@H]1CCC(=O)N1` [Cmpd 72, (S)-5-((((6-(2-chloro-3-(3-chloro-2-(8-chloro-2-(3-fluoropropyl)-1,2,3,4-tetrahydroisoquinolin-6-yl)pyridin-4-yl)phenyl)-2-methoxypyridin-3-yl)methyl)amino)methyl)pyrrolidin-2-one] had a pEC50 of 6.41.

As to `COCC(=O)N1CCC(NCc2ccc(-c3cccc(-c4ccnc(-c5ccc(CNC6CCN(C(C)=O)CC6)c(OC)c5)c4Cl)c3Cl)nc2OC)CC1` [Example 481, 1-(4-(((6-(3-(2-(4-(((1-Acetylpiperidin-4-yl)amino)methyl)-3-methoxyphenyl)-3-chloropyridin-4-yl)-2-chlorophenyl)-2-methoxypyridin-3-yl)methyl)amino)piperidin-1-yl)-2-methoxyethan-1-one], the pEC50 was 7.80.

Regarding `COCC(=O)N1CCC(NCc2ccc(-c3cccc(-c4ccnc(-c5ccc(CN6CC7(C6)CN(C(C)=O)C7)c(OC)c5)c4Cl)c3Cl)nc2OC)CC1` [Example 491, 1-(4-(((6-(3-(2-(4-((6-Acetyl-2,6-diazaspiro[3.3]heptan-2-yl)methyl)-3-methoxyphenyl)-3-chloropyridin-4-yl)-2-chlorophenyl)-2-methoxypyridin-3-yl)methyl)amino)piperidin-1-yl)-2-methoxyethan-1-one], the pEC50 is 7.50.

In the case of `COc1cc(-c2nccc(-c3cccc(-c4ccc(CN5CC6(CNC(=O)C6)C5)c(OC)n4)c3Cl)c2C#N)ccc1CN1CC2(CNC(=O)C2)C1` [Example 433, 4-(2-Chloro-3-(6-methoxy-5-((7-oxo-2,6-diazaspiro[3.4]octan-2-yl)methyl)pyridin-2-yl)phenyl)-2-(3-methoxy-4-((7-oxo-2,6-diazaspiro[3.4]octan-2-yl)methyl)phenyl)nicotinonitrile], the pEC50 is 7.40.

Consider `COc1cc(-c2nccc(-c3cccc(-c4ccc(CNC[C@@H]5CCC(=O)N5)c(OC)n4)c3Cl)c2Cl)cc2c1CN(CC(O)C(C)C)CC2` (stereo partly drawn) [Cmpd 53, (5S)-5-((((6-(2-chloro-3-(3-chloro-2-(2-(2-hydroxy-3-methylbutyl)-8-methoxy-1,2,3,4-tetrahydroisoquinolin-6-yl)pyridin-4-yl)phenyl)-2-methoxypyridin-3-yl)methyl)amino)methyl)pyrrolidin-2-one], for which the pEC50 is 6.40.

As for `COc1cc(-c2nccc(-c3cccc4c3CC[C@@H]4Nc3nc(OC)c(CN4CC5(C4)CN(C(C)=O)C5)nc3C(F)(F)F)c2Cl)ccc1CN1CC2(C1)CN(C(C)=O)C2` [Example 367, (S)-1-(6-((5-((4-(2-(4-((6-Acetyl-2,6-diazaspiro[3.3]heptan-2-yl)methyl)-3-methoxyphenyl)-3-chloropyridin-4-yl)-2,3-dihydro-1H-inden-1-yl)amino)-3-methoxy-6-(trifluoromethyl)pyrazin-2-yl)methyl)-2,6-diazaspiro[3.3]heptan-2-yl)ethan-1-one], the pEC50 is 6.39.

For the compound `COc1cc(-c2nccc(-c3cccc(-c4ccc(CN5CCC(NC(C)=O)CC5)c(OC)n4)c3C)c2Cl)ccc1CN1CCC(NC(C)=O)CC1` [Example 467, N-(1-((6-(3-(2-(4-((4-acetamidopiperidin-1-yl)methyl)-3-methoxyphenyl)-3-chloropyridin-4-yl)-2-methylphenyl)-2-methoxypyridin-3-yl)methyl)piperidin-4-yl)acetamide], the pEC50 is at most 5.00.

Turning to `COc1nc(-c2cccc(-c3ccnc(-c4cc(F)c5c(c4)CCN(C[C@@H]4CCC(=O)N4)C5)c3Cl)c2Cl)ccc1CNC[C@@H]1CCC(=O)N1` [Cmpd 61, (S)-5-((((6-(2-chloro-3-(3-chloro-2-(8-fluoro-2-(((S)-5-oxopyrrolidin-2-yl)methyl)-1,2,3,4-tetrahydroisoquinolin-6-yl)pyridin-4-yl)phenyl)-2-methoxypyridin-3-yl)methyl)amino)methyl)pyrrolidin-2-one], the pEC50 was 7.12.

`CCOc1cc(-c2nccc(-c3cccc(-c4ccc(CNC5CCN(C(C)=O)CC5)c(OC)n4)c3Cl)c2Cl)cn2nc(CNC3CCN(C(C)=O)CC3)nc12` [Example 585, 1-(4-(((6-(4-(3-(5-(((1-Acetylpiperidin-4-yl)amino)methyl)-6-methoxypyridin-2-yl)-2-chlorophenyl)-3-chloropyridin-2-yl)-8-ethoxy-[1,2,4]triazolo[1,5-a]pyridin-2-yl)methyl)amino)piperidin-1-yl)ethan-1-one]: the pEC50 was at most 5.00.

`COc1cc(-c2nccc(-c3cccc(-c4ccc(CNC5CCN(C(C)=O)CC5)c(OC)n4)c3Cl)c2Cl)ccc1CN1CCC[C@H](O)C1` [Example 507, (S)-1-(4-(((6-(2-Chloro-3-(3-chloro-2-(4-((3-hydroxypiperidin-1-yl)methyl)-3-methoxyphenyl)pyridin-4-yl)phenyl)-2-methoxypyridin-3-yl)methyl)amino)piperidin-1-yl)ethan-1-one] had a pEC50 of 7.34.

`COc1cc(-c2nccc(-c3cccc(-c4ccc(CNC5CC6(COC6)C5)c(OC)n4)c3Cl)c2Cl)ccc1CNC1CC2(COC2)C1` (stereo not shown) [Example 365, N-(4-(4-(3-(5-(((2-Oxaspiro[3.3]heptan-6-yl)amino)methyl)-6-methoxypyridin-2-yl)-2-chlorophenyl)-3-chloropyridin-2-yl)-2-methoxybenzyl)-2-oxaspiro[3.3]heptan-6-amine] had a pEC50 of 7.70.

In turn, `COc1cc(-c2nccc(-c3cccc(-c4ccc(CN5CCC(NC(C)=O)CC5)c(OC)n4)c3Cl)c2Cl)ccc1CNC1CCOCC1` [Example 432, N-(1-((6-(2-Chloro-3-(3-chloro-2-(3-methoxy-4-(((tetrahydro-2H-pyran-4-yl)amino)methyl)phenyl)pyridin-4-yl)phenyl)-2-methoxypyridin-3-yl)methyl)piperidin-4-yl)acetamide] had a negative logarithm of the EC50 (pEC50) of 7.28.

For `COc1cc(-c2nccc(-c3cccc(-c4ccc(CNC[C@@H]5CCC(=O)N5)c(OC)n4)c3Cl)c2Cl)ccc1[C@H](C)N` [Example 335, (S)-5-((((6-(3-(2-(4-((S)-1-Aminoethyl)-3-methoxyphenyl)-3-chloropyridin-4-yl)-2-chlorophenyl)-2-methoxypyridin-3-yl)methyl)amino)methyl)pyrrolidin-2-one], the pEC50 was 7.30.

Consider `COc1nc(-c2cccc(-c3ccnc(-c4ccc5c(c4)CCC[C@H]5NC[C@@H]4CCC(=O)N4)c3Cl)c2Cl)ccc1CN[C@H]1CCOC1=O` [Example 257, (S)-5-((((R)-6-(3-Chloro-4-(2-chloro-3-(6-methoxy-5-((((S)-2-oxotetrahydrofuran-3-yl)amino)methyl)pyridin-2-yl)phenyl)pyridin-2-yl)-1,2,3,4-tetrahydronaphthalen-1-yl)amino)methyl)pyrrolidin-2-one], for which the pEC50 was at most 5.00.

As usually defined, the pEC50 is −log10 of the EC50, conventionally taken in molar units.
